Read-outs that look alike come from different tables or passages of the source.
Tests used:
Type in all cases: cell-based
[1] = target: T1, human PepT2 (Homo sapiens, UniProt Q16348); test: Inhibition of [3H] glycylsarcosine uptake into BaF3/PepT2 cells
T1 construct: expressed in transfected cells; host or cells: BaF3 (murine bone marrow-derived cell line)
T1 sequence (Q16348 1-729): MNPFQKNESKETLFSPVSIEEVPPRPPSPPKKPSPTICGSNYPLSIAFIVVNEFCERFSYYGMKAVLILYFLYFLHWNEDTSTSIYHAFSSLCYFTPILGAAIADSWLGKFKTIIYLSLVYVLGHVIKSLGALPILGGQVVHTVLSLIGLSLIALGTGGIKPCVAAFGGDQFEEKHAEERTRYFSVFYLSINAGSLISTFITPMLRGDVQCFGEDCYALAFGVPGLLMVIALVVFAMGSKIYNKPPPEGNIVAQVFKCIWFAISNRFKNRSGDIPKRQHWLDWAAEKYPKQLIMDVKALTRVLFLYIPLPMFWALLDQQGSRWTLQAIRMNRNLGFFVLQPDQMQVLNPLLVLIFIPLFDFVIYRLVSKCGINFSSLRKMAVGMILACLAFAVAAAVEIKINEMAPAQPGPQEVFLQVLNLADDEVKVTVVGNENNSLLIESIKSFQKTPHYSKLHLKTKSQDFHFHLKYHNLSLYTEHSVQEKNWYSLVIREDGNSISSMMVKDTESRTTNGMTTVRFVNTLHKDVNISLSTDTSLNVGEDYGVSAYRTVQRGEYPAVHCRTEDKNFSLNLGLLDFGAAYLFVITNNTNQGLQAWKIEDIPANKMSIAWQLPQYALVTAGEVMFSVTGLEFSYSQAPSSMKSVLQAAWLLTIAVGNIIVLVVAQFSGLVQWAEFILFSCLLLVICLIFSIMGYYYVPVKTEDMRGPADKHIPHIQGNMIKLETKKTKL
Description: The ability of AT-264 to inhibit PepT2 was examined using a murine bone marrow-derived cell line BaF3 in which human PepT2 is forced to be expressed (hereinafter, abbreviated to BaF3/PepT2).

[2] = target: T2, PepT1 (Homo sapiens, UniProt P46059); test: Inhibition of [14C] glycylsarcosine uptake into Caco-2 cells
T2 construct: In Caco-2 cells, only PepT1 was expressed; endogenous in cells; host or cells: Caco-2 (human colon cancer cell line)
T2 sequence (P46059 1-708): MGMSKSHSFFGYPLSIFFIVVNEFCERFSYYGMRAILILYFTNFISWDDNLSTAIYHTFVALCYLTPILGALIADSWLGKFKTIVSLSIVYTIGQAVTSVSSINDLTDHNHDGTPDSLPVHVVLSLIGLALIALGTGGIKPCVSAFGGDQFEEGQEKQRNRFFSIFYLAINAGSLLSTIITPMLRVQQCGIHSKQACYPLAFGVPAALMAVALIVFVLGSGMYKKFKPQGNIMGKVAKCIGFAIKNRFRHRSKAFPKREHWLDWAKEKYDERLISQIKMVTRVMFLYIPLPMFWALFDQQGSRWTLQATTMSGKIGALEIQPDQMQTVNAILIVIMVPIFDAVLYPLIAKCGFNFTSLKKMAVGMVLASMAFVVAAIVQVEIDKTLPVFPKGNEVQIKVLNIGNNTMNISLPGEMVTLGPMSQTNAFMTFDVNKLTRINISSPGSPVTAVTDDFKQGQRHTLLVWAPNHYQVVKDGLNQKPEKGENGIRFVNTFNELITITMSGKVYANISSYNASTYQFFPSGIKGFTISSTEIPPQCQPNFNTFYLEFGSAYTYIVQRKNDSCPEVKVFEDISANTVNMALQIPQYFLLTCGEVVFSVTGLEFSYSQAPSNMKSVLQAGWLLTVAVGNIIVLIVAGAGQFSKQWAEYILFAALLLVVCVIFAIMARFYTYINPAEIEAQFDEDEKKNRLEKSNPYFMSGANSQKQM
Description: AT-264's ability to inhibit PepT was examined using a human colon cancer cell line (Caco-2 cells). The results were that the IC50 for uptake of radioactive substrate [^14C] glycylsarcosine into cells was 100 μM (FIG. 1). In Caco-2 cells, only PepT1 was expressed, and PepT1 function was considered to be inhibited by AT-264. The purity of AT-264 used in the present experiment was approximately 50% to 60%, and the actual IC50 was thought to be about 50 μM or so.

[3] = test system: human pancreatic cancer cell line BxPC-3; test: Cell growth inhibition of BxPC-3, MTS assay
Description: AT-264 was dissolved in RPMI1640—10 mM Hepes with 100 units/mL penicillin and 0.1 mg/mL streptomycin (hereinafter, abbreviated to ‘the medium’) containing 0.5% ethanol and 0.5% DMSO to prepare 2.5 mM AT-264 solution. Furthermore, this solution was diluted with the medium to prepare 0.625 mM and 0.0625 mM AT-264 solutions.
5×10^4 cells/mL solution of BxPC-3 was prepared using the medium containing 50% FBS. This suspension was plated onto a 96-well plate pre-coated with Collagen type I at 40 μL/well (2×10^3 cells), and 160 μL of AT-264 solution was added. This was cultured for six days in a CO2 incubator, and on the sixth day of culturing, the number of viable cells was quantified by MTS assay.

[4] = test system: human pancreatic cancer cell line AsPC-1; test: Cell growth inhibition of AsPC-1, MTS assay
Description: AT-264 was dissolved in RPMI1640—10 mM Hepes (hereinafter, abbreviated to ‘the medium’) containing 0.5% ethanol and 0.5% DMSO to prepare 2.5 mM AT-264 solution. Then, this solution was diluted with the medium to prepare 0.625 mM and 0.0625 mM AT-264 solutions.
A 5×10^4 cells/mL solution of human pancreatic cancer cell line AsPC-1 was prepared using a medium containing 50% FBS. This suspension was plated onto a 96-well plate pre-coated with Collagen type I at 40 μL/well (2×10^3 cells), and 160 μL of the AT-264 solution was added. This was cultured for six days in a CO2 incubator (on the second day of culturing, 100 units/mL penicillin and 0.1 mg/mL streptomycin were added). On the sixth day of culturing, the number of viable cells was quantified by MTS assay.

In the case of `N=C(N)c1cccc(CC(NS(=O)(=O)NCc2cccc3ccccc23)C(=O)N2CCCCC2C(=O)O)c1` (stereo not drawn) [AT-264], the “uptake of radioactive substrate [3H] glycylsarcosine into cells” value [1] is reported as “inhibited in a concentration-dependent manner”, the IC50 ([2]; AT-264 purity approximately 50% to 60%, read-out: IC50 for uptake of radioactive substrate [14C] glycylsarcosine into cells) is reported as 100 µM and the IC50 ([2]; estimated from purity of approximately 50% to 60%, read-out: actual IC50 (corrected for purity of AT-264)) is reported as ~50 µM. The inhibition at 500 µM ([3]; Homo sapiens, 144 h, BxPC-3, 0.5 mM AT-264, six days culture) was ~20%, the inhibition at 2000 µM ([3]; Homo sapiens, 144 h, BxPC-3, 2 mM AT-264, six days culture) was ~75% and the “Morphological changes to BxPC-3 under the microscope” value ([3]; in the presence of AT-264) was “not observed”. For the same compound, the Cell growth inhibition ([4]; AsPC-1, 0.5 mM AT-264, six days culture) was “slight”, the inhibition at 2000 µM ([4]; Homo sapiens, ASPC1, 144 h, AsPC-1, 2 mM AT-264, six days culture) was ~30% and the “Morphological changes to AsPC-1 under the microscope” value ([4]; in the presence of AT-264) was “not observed”.
